Source: patent US20260284240A1, “RADIOLABELED COMPOUND FOR USE IN A METHOD OF TREATING CARBONIC ANHYDRASE IX POSITIVE DISEASES” (DEBIOPHARM INTERNATIONAL S.A., priority 2023, published 2026)
Read-outs that look alike come from different tables or passages of the source. Starred links: 1 amine or outer side, 2 acyl side, 3 side chain; linkers in the order of their positions; H or OH if unused. Positions of bridges follow the written chain, without caps; N, C: chain ends. Non-standard residues stand in square brackets, D forms with d. Residues, ends and D or L forms follow the SMILES beside them. *: point of attachment. Phe(3-NHCO(CH2)3SO2NH2) = N[C@@H](Cc1cccc(NC(=O)CCCS(N)(=O)=O)c1)C(=O)O; DOTA = O=C(O)CN1CCN(CC(=O)O)CCN(CC(=O)*)CCN(CC(=O)O)CC1; mXylylene = c1cc(C[*:1])cc(C[*:2])c1; X1 = O=C(CN1CCN([*:1])CC1)[*:2]

What was measured:
[1] = Pharmacokinetics after single i.v. dose in healthy male CD-1 mice; format: in vivo; details: urine, iv, mouse, read-out: Injected dose retrieved from urine unchanged over 8 hours
Procedure: The pharmacokinetics of DPI-4452 after a single intravenous (i.v.) dose were investigated in healthy mice. […] Plasma and urine samples collected after dosing were analyzed using a LC-HRMS (liquid chromatography coupled with high-resolution mass spectrometry) assay method. Concentration values were used for pharmacokinetic calculations.
Male CD-1 mice (3 animals per time point and per dose level; overall, 28.2-37.6 g body weight) were administered intravenously in the tail vein in a 2 mL/kg dosing volume. Blood samples were collected in K2EDTA tubes at 5 min, 15 min, 30 min, 1 h, 2 h, 4 h, 8 h, and urine was collected over 8 hours post dose. […]
Plasma and urine samples were analyzed by LC-HRMS after solid phase extraction, using a stable isotope-labeled internal standard (^13C6, ^15N-DPI-4452). […] The lower limit of quantification was 1.00 ng/mL in plasma and urine.
The non-compartmental (NCA) pharmacokinetic analysis of plasma concentration data was conducted using Phoenix 64 WinNonlin (Build 8.3.3.33) software. […] The terminal phase half-life (T1/2) was calculated by least-squares regression analysis of the terminal linear part of the log concentration-time curve. The area under the plasma concentration-time curve (AUC) was determined with the linear trapezoidal rule for increasing values and log trapezoidal rule for decreasing values up to the last measurable concentration.

[2] = GLP extended single-dose i.v. toxicity study in beagle dogs; format: in vivo, dog
Procedure: The following parameters and endpoints were evaluated: mortality, clinical observations, body weights, food consumption, body temperature, local reactions, ophthalmology, clinical pathology parameters (hematology, coagulation, clinical chemistry, and urinalysis), cardiovascular and respiratory safety pharmacology endpoints along with FOB evaluation, organ weights, and macroscopic and microscopic examinations, and TK parameters. The animals from subset A (3 males and 3 females per group) were sampled for toxicokinetics (TK) at: pre-dose, 5 min, 15 min, 30 min, 1 h, 2 h, 3 h and 6 h. Blood samples were collected in K2EDTA tubes. Plasma was prepared by centrifugation (2500 g for 10 minutes, +4° C.) within 1 hour after collection, and then frozen within 1 hour after centrifugation and stored at −80° C. […] Chromatographic separation was achieved using a Waters Acquity UPLC system with a Waters Acquity HSS T3 C18 2.1×50 mm, 1.8 μm column. Chromatography was conducted at 50° C. at a flow rate of 0.7 mL/min using a mobile phase consisting of A: 1% formic acid in acetonitrile, and B: 1% formic acid in water, according to the following linear gradient: 0 to 0.1 min: 90% B; 0.1 to 4.1 min: from 90% B to 74% B; 4.1 to 4.2 min: from 74% B to 5% B; 4.2 to 4.6 min: 5% B; 4.6 to 4.7 min: from 5% B to 90% B; 4.7-5.1 min; 90% B. Detection was performed using a Sciex AP16600 TOF mass spectrometer. Toxicokinetic parameters were estimated from concentration-time data using Phoenix pharmacokinetic software (version 6.4, Certara L.P.). A non-compartmental approach consistent with the bolus intravenous injection was used for parameter estimation.

[3] = Allometric prediction of human PK parameters from mouse and dog PK; details: allometry from mouse and dog
Procedure: From the variety of CL, Vd and T1/2 determined in the animal studies, the highest and lowest values for each species were retained, and allometry was conducted on all the combinations to obtain a range for each predicted human PK parameter.

[4] = Toxicokinetics in the dose range finding study in dogs (LC-HRMS plasma); format: in vivo, dog; details: for CL / Vss / t1/2 / Dose-normalized AUClast / AUClast / concentration at […]: dog plasma, i.v. bolus; for CL / Vss / t1/2 / AUClast / concentration at […]: mean n = 2; for Dose-normalized AUClast: AUClast divided by dose in μg/kg; for concentration at […]: iv, read-out: C15 min
Procedure: The following parameters and endpoints were evaluated: mortality, clinical observations, body weights, food consumption, local reactions, clinical pathology parameters (hematology, coagulation, and clinical chemistry), organ weights, and macroscopic examinations. Both animals were sampled for toxicokinetics (TK) on each dosing occasion (i.e., on day 1, day 5, day 9 and day 13) at: pre-dose, 15 min, 30 min, 1 h, 6 h and 24 h. Blood samples were collected in K2EDTA tubes. Plasma was prepared by centrifugation (2500 g for 10 minutes, +4° C.) within 1 hour after collection, and then frozen within 1 hour after centrifugation and stored at −80° C. […] Chromatographic separation was achieved using a Waters Acquity UPLC system with a Waters Acquity HSS T3 C18 2.1×50 mm, 1.8 μm column. Chromatography was conducted at 50° C. at a flow rate of 0.7 mL/min using a mobile phase consisting of A: acetonitrile, and B: 1% formic acid in water, according to the following linear gradient: 0 to 0.1 min: 90% B; 0.1 to 4.1 min: from 90% B to 74% B; 4.1 to 4.2 min: from 74% B to 5% B; 4.2 to 4.6 min: 5% B; 4.6 to 4.7 min: from 5% B to 90% B; 4.7-5.1 min; 90% B. Detection was performed using a Sciex AP16600 TOF mass spectrometer. Toxicokinetic parameters were estimated from concentration-time data using Phoenix pharmacokinetic software (version 6.4, Certara L.P.). A non-compartmental approach consistent with the bolus intravenous injection was used for parameter estimation. […] Neither in-life parameters nor clinical pathology parameters were affected. In addition, there were no related macroscopic observations noted at necropsy.

## CC(C)C[C@@H]1NC(=O)[C@H](Cc2cccc(NC(=O)CCCS(N)(=O)=O)c2)NC(=O)[C@H](CC(=O)O)NC(=O)[C@H]2CCCN2C(=O)[C@H](CCC(=O)O)NC(=O)[C@@H](NC(=O)[C@H](CCC(N)=O)NC(=O)CN2CCN(C(=O)CN3CCN(CC(=O)O)CCN(CC(=O)O)CCN(CC(=O)O)CC3)CC2)CSCc2cccc(c2)CSC[C@@H](C(N)=O)NC(=O)[C@H](CO)NC(=O)[C@H](Cc2c[nH]c3ccccc23)NC(=O)[C@H]([C@@H](C)O)NC1=O [DPI-4452, DOTA-PPAc-Gln-[Cys(3MeBn)-Glu-pro-Asp-Af3(Cpsu)-Leu-Thr-Trp-Ser-Cys]-NH2] ({DOTA}-[X1]QCE[dP]D[Phe(3-NHCO(CH2)3SO2NH2)]LTWSC-NH2; linker 3-12 via mXylylene)
[1]; i.v. 0.7 mg/kg
  dose excreted at 8 h: 3.57%
[1]; i.v. 5.5 mg/kg
  dose excreted at 8 h: 8.89%
[2]; considering a 60 kg human
  Human equivalent dose of the dog NOAEL: 13.3 mg
[2]; dog, single i.v. 16, 80, 400 μg/kg
  Clinical signs or local reactions: no DPI-4452 treatment-related clinical signs or local reactions were observed
[2]; dog, single i.v. bolus up to 400 μg/kg
  Tolerability: well tolerated
[3]
  Predicted human clearance (CL): 0.214 to 0.78 L/h/kg
  Predicted human terminal half-life (T1/2): 10.2 to 88.2 min
  Predicted human volume of distribution (Vd): 0.189 to 0.455 L/kg
[4]; Day 1, […], 1440 min
  CL: 0.702 L/h/kg
  Vss: 0.22 L/kg
  t1/2: 15 min
[4]; Day 1, […]
  Dose-normalized AUClast: 1.36
[4]; Day 5, 0.08 mg/kg, 7200 min
  AUClast: 0.117 µg·h/mL
[4]; Day 5, 0.08 mg/kg
  Dose-normalized AUClast: 1.46
  concentration at […]: 0.156 µg/mL
[4]; Day 9, 0.4 mg/kg, 12960 min
  AUClast: 0.926 µg·h/mL
  CL: 0.41 L/h/kg
  Vss: 0.24 L/kg
  t1/2: 29.4 min
[4]; Day 9, 0.4 mg/kg
  Dose-normalized AUClast: 2.31
  concentration at […]: 0.88 µg/mL
[4]; Day 13, 0.8 mg/kg, 18720 min
  AUClast: 3.53 µg·h/mL
  CL: 0.211 L/h/kg
  Vss: 0.32 L/kg
  t1/2: 52.8 min
[4]; Day 13, 0.8 mg/kg
  Dose-normalized AUClast: 4.42
  concentration at […]: 2 µg/mL
[4]; dog, 25-800 μg/kg i.v.
  Dose proportionality of exposure: exposure increased more than dose-proportionally
[4]; Day 1, 0.025 mg/kg
  concentration at […]: 0.0468 µg/mL
